According to BindingDB's records for doi:10.1111/j.1747-0285.2009.00902.x (Institut Des BiomolÉCules Max Mousseron (Ibmm), 2009):
pKi: −log10 of the molar value. Values joined by “and” are separate entries in the source; they are usually repeats but may differ in a detail not shown here. Identical values can stand only once.

Biological target: Carbonic anhydrase 6 (Homo sapiens, UniProt P23280)
Assay: Enzyme Inhbition Assay
Conditions: pH 7.5; 20 °C

Sequence of Carbonic anhydrase 6 (P23280 whole entry): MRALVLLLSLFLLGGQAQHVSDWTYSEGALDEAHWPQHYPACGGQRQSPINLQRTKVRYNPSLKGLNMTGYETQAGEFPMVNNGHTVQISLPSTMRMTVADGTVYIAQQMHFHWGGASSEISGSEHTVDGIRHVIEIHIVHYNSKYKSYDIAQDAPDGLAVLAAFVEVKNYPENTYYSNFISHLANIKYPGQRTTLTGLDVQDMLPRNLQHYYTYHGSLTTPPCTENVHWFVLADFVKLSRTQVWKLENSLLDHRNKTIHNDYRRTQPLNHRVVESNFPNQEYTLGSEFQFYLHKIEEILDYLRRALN

pKi | Compound
8.46 and 8.29 and 9.25 | NS(=O)(=O)c1ccc(NC2OCC(O)C(O)C2O)cc1 (configuration not stated)
8.47 and 7.89 | CC1OC(Nc2ccc(S(N)(=O)=O)cc2)C(O)C(O)C1O (configuration not stated)
